Several values for one entry are separate records, joined by “and”; a condition that tells them apart may be missing. Equal entries are not always repeated.
Experiments:
HCA-1 cells [1] = assay: CXCL12-induced HCA-1 chemotaxis (invasion assay); format: cell-based, murine; settings: concentration up to 1 µM
Experimental: [3-(2-Aminomethyl-oxazol-4-yl)-propyl]-[3-(tert-butoxycarbonyl-cyclohexyl-amino)- propyl]-carbamic acid tert-butyl ester (Linker 1). A mixture of L1-6 (10.35 g, 16.5 mmol) and 10% Pd/C (4.66 g) in iso-propanol (310 mL) was stirred under H2(g) at 50 °C for 15 h.
The resulting mixture was filtered, and the filtrate was concentrated to afford Linker 1 (7.23 g, […]
Wound healing and invasion assays
Cell migration ability was measured by wound healing assay. HCA-1 cells (5 × 10^5 cells per well) were seeded onto 12-well plates and incubated overnight. When the cell confluence exceeded 90%, scratch wounds were made by scraping a straight line in the middle of the cell layer using the tip of a 1000 µL pipette. After washing the cells with PBS, the cells were incubated in serum-free medium under different treatment conditions (control, 100 ng/mL CXCL12, and 10 µM BPRCX807 with 100 ng/mL CXCL12). Then, 3-4 fields (40×) of each group were randomly chosen and observed by a microscope (IX83, Olympus, Japan) at time points of 0 h, 24h, 48 h and 72 h. For the invasion assay, HCA-1 cells were suspended in RPMI 1640 containing 0.5% FBS and then preincubated with the indicated concentrations of compounds for 10 min at 37 °C. […] After 17.5 h of incubation at 37 °C, the cells in both chambers of the inserts were measured with a CellTiter-Glo Luminescent Cell Viability Assay (Promega, Wisconsin). […]

JHH-7 cells = assay: Western blot of phospho-ERK and phospho-AKT after CXCL12 stimulation; format: cell-based, human; settings: 10 µM, CXCL12 stimulation
Experimental: (§1) Western blotting was conducted by following standard procedures. HCA-1 or JHH-7 cells (10^5 cells per well) were seeded in 12-well plates (Costar, IL), incubated for 12 h and […]
(§2) containing (100 ng/mL) serum-free medium. After 24 h, the cells were lysed in RIPA buffer on ice for 30 min, and samples were collected and loaded with 4× Laemmli Sample buffer (Bio-Rad, Hercules, CA). The samples were separated on a 10% SDS-PAGE gels and transferred to PVDF membranes. After blocking with skim milk for 1 h, the membranes were incubated at 4°C overnight with primary antibodies against p -AKT, AKT, p-ERK, ERK (Cell Signaling, Danvers, MA) or β-actin (Sigma-Aldrich, St. Louis, MO) before incubation with HRP-conjugated secondary antibodies (Antibodies Inc., Davis, CA) for 1 h. […]
(§3) Total RNA was extracted from HCA-1 cells using the RNeasy Mini Kit (Qiagen, CA, USA). cDNAs were synthesized using the High-Capicity cDNA Reverse Transcription Kit […]
(§4) Biosystems, CA, USA) on a QPCR System. The comparative threshold cycle method was used to calculate fold change in gene expression, which was normalized to β-actin as a […]

HCA-1 cells [2] = assay: as above; format: cell-based, murine; settings: 20 µM, CXCL12 stimulation
Experimental: as §1, §2, §3, §4

[3] = system: 65 other nonprimary targets (receptors and ion channels); assay: Off-target standard assays, remaining panel; format: binding; settings: 10 µM
Source text: Table: List of genes examined by real-time PCR and the primer sequences used.
Genes Forward primers Reverse primers […]
Vim 5’-[…]-3’ 5’-[…]-3’ […]
Zeb2 5’-[…]-3’ 5’-[…]-3’
Twist1 5’-[…]-3’ 5’-[…]-3’
Cdh1 5’-[…]-3’ 5’-[…]-3’
Mta3 5’-[…]-3’ 5’-[…]-3’ […]
Off-target standard assays
Methods employed in this study have been adapted from the scientific literature to […]
maximize reliability and reproducibility. Reference standards were run as an integral part of […]
each assay to ensure the validity of the results obtained. Radioligand binding Assays were […]
performed under conditions described in the accompanying "Methods" section of this report […]
by Eurofins Panlabs, Inc (Taipei, Taiwan, ROC).
BPRCX807 were tested in the hERG (hERG-CHO, automated patch-clamp) assay and determined at Eurofins Panlabs (Missouri, USA). The experiment was accepted in accordance with Eurofins validation Standard Operating Procedure.
Selectivity Screening of various chemokine receptors
The results were performed by Eurofins DiscoverX (Fremont, California, USA). The

in vivo = settings: ICR, mouse, sc
CXCR4 = CXCR4 (Homo sapiens, UniProt P61073); assay: CXCL12-induced chemotaxis inhibition assay in CCRF-CEM cells; format: cell-based; set-up: host or cells: CCRF-CEM; settings: mean ± SD
Sequence of CXCR4 (P61073 whole entry): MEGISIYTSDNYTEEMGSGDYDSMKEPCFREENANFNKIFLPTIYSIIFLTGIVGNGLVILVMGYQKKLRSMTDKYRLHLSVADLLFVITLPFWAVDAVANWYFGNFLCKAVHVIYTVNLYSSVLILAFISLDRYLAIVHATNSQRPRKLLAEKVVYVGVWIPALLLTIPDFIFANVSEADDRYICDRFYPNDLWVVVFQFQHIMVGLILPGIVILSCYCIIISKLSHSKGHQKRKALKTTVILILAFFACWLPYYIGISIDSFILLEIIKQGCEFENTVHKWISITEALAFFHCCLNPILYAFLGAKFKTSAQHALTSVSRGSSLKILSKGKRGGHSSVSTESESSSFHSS
Experimental: Figure S1. Binding affinity and chemotaxis inhibition assay of BPRCX807. (a) Binding affinity (IC50) of BPRCX807 was determined by 50% inhibition of radioligand [125I]CXCL12 binding to hCXCR4-transfected HEK293T membrane; (b) CXCL12-induced chemotaxis inhibition assay was performed to measure the inhibitory activity of BPRCX807 using CCRF-CEM cell line. Values represent the mean ± SD of at least three independent […]
Figure S2. CXCR4+CD34+ stem cell mobilization. C57BL/6 male mice were […]
h after dosing, the peripheral blood was harvested for analyzing the number of CXCR4+CD34+ stem cells. The data are the mean values ± SEM (n = 3/group). Statistical

**Q.** For `Cc1cc(NC2CCN(C(=O)CCNCC(=O)O)CC2)nc(NCc2nc(CCCNCCCNC3CCCCC3)co2)n1` [BPRCX807], which CXCL12-induced cell migration (HCA-1 cells [1]) is on record?
**A.** significant decrease

**Q.** And the “CXCR4/CXCL12-triggered ERK and Akt activation” value (JHH-7 cells)?
**A.** suppress CXCR4/CXCL12-triggered ERK and Akt activation more significantly than its counterparts

**Q.** What about the “CXCR4/CXCL12-triggered ERK and Akt activation” value (HCA-1 cells [2]) of the same molecule?
**A.** suppress CXCR4/CXCL12-triggered ERK and Akt activation more significantly than its counterparts

**Q.** What about the “Inhibition of 65 other nonprimary targets” value [3] of the same molecule?
**A.** < 50%

**Q.** And the MTD (in vivo)?
**A.** 75 mg/kg

**Q.** And the EC50 (CXCR4)?
**A.** 48 nM and 48.1 nM

Source: article PMC8020795 (Proceedings of the National Academy of Sciences of the …, 2021)
